Laboratory results: the supplement of paper PMC10733146

Key:
Experiment in all cases: viability relative to DMSO control (fraction); higher = less drug effect (more viable cells)
Details in all cases: 48 h
[1] = compound: C[C@H](NC(=O)CCC(F)(F)F)C(=O)N[C@@H]1C(=O)N(CCO)c2ncccc2-c2ccccc21
In short: (§1)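 Viability is given as CellTiter-Glo luminescence relative to the median of 16 inner DMSO wells. Fresh or cryopreserved primary mononuclear tumour cells from blood, bone marrow (both Ficoll-isolated) or processed lymph node were plated at 4 × 10^4 cells per well in 384-well plates against five pre-plated compound concentrations, one well each. Incubation lasted 48 h at 37 °C and 5% CO2 in RPMI-1640 with penicillin/streptomycin, L-glutamine and human serum.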

Chlorambucil = compound: O=C(O)CCCc1ccc(N(CCCl)CCCl)cc1 [Chlorambucil]
In short: as §1

SGC 0946 = compound: CC(C)N(CCCNC(=O)Nc1ccc(C(C)(C)C)cc1)C[C@H]1O[C@@H](n2cc(Br)c3c(N)ncnc32)[C@H](O)[C@@H]1O [SGC 0946]
In short: as §1

[2] = compound: O=C(NO)c1cccc(C(=O)NCCc2ccccc2)c1
In short: as §1

Barasertib = compound: CCN(CCCOc1ccc2c(Nc3cc(CC(=O)Nc4cccc(F)c4)[nH]n3)ncnc2c1)CCOP(=O)(O)O [Barasertib]
In short: as §1

EPZ-6438 = compound: CCN(c1cc(-c2ccc(CN3CCOCC3)cc2)cc(C(=O)NCc2c(C)cc(C)[nH]c2=O)c1C)C1CCOCC1 [EPZ-6438]
In short: as §1

Midostaurin hydrate = compound: CO[C@@H]1[C@H](N(C)C(=O)c2ccccc2)C[C@H]2O[C@]1(C)n1c3ccccc3c3c4c(c5c6ccccc6n2c5c31)C(=O)NC4 [Midostaurin hydrate]
In short: as §1

Entospletinib = compound: c1cn2cc(-c3ccc4cn[nH]c4c3)nc(Nc3ccc(N4CCOCC4)cc3)c2n1 [Entospletinib]
In short: as §1

Vindesine = compound: CC[C@]1(O)C[C@@H]2CN(CCc3c([nH]c4ccccc34)[C@@](C(=O)OC)(c3cc4c(cc3OC)N(C)[C@H]3[C@@](O)(C(N)=O)[C@H](O)[C@]5(CC)C=CCN6CC[C@]43[C@@H]65)C2)C1 [Vindesine]
In short: as §1

Selinexor = compound: O=C(/C=C\n1cnc(-c2cc(C(F)(F)F)cc(C(F)(F)F)c2)n1)NNc1cnccn1 [Selinexor]
In short: as §1

[3] = compound: O=C(Nc1ccc2[nH]nc(-c3ccncc3)c2c1)[C@@H]1CCN(CC(=O)N2CCN(c3ccc(-c4ncccn4)cc3)CC2)C1
In short: as §1

Venetoclax = compound: CC1(C)CCC(CN2CCN(c3ccc(C(=O)NS(=O)(=O)c4ccc(NCC5CCOCC5)c([N+](=O)[O-])c4)c(Oc4cnc5[nH]ccc5c4)c3)CC2)=C(c2ccc(Cl)cc2)C1 [Venetoclax]
In short: as §1

[4] = compound: C[C@H]1C[C@@H](n2c(Nc3ccc(OC(F)(F)F)cc3)nc3cc(CCC(=O)O)ccc32)CC(C)(C)C1
In short: as §1

Bendamustine = compound: Cn1c(CCCC(=O)O)nc2cc(N(CCCl)CCCl)ccc21 [Bendamustine]
In short: as §1

Test System: primary ALL patient cells (S048)
- viability ([1]; 0.016 µM): 1.03
- viability ([1]; 0.08 µM): 1.08
- viability ([1]; 0.4 µM): 1.03
- viability ([1]; 2 µM): 1.06
- viability ([1]; 10 µM): 0.965
- viability (Chlorambucil; 0.032 µM): 1.04
- viability (Chlorambucil; 0.16 µM): 0.959
- viability (Chlorambucil; 0.8 µM): 0.967
- viability (Chlorambucil; 4 µM): 0.494
- viability (Chlorambucil; 20 µM): 0.0459
- viability (SGC 0946; 0.024 µM): 0.807
- viability (SGC 0946; 0.12 µM): 0.829
- viability (SGC 0946; 0.6 µM): 0.781
- viability (SGC 0946; 3 µM): 0.695
- viability (SGC 0946; 15 µM): 0.303
- viability ([2]; 0.024 µM): 0.897
- viability ([2]; 0.12 µM): 0.878
- viability ([2]; 0.6 µM): 0.886
- viability ([2]; 3 µM): 0.828
- viability ([2]; 15 µM): 0.65
- viability (Barasertib; 0.0008 µM): 0.776
- viability (Barasertib; 0.004 µM): 0.774
- viability (Barasertib; 0.02 µM): 0.744
- viability (Barasertib; 0.1 µM): 0.775
- viability (Barasertib; 0.5 µM): 0.753
- viability (EPZ-6438; 0.024 µM): 1.01
- viability (EPZ-6438; 0.12 µM): 0.973
- viability (EPZ-6438; 0.6 µM): 1.03
- viability (EPZ-6438; 3 µM): 0.918
- viability (EPZ-6438; 15 µM): 0.753
- viability (Midostaurin hydrate; 0.024 µM): 0.98
- viability (Midostaurin hydrate; 0.12 µM): 0.918
- viability (Midostaurin hydrate; 0.6 µM): 0.889
- viability (Midostaurin hydrate; 3 µM): 0.556
- viability (Midostaurin hydrate; 15 µM): 0.182
- viability (Entospletinib; 0.024 µM): 0.996
- viability (Entospletinib; 0.12 µM): 1.03
- viability (Entospletinib; 0.6 µM): 1.02
- viability (Entospletinib; 3 µM): 0.984
- viability (Entospletinib; 15 µM): 0.944
- viability (Vindesine; 0.016 µM): 0.395
- viability (Vindesine; 0.08 µM): 0.179
- viability (Vindesine; 0.4 µM): 0.111
- viability (Vindesine; 2 µM): 0.0967
- viability (Vindesine; 10 µM): 0.0648
- viability (Selinexor; 0.008 µM): 0.335
- viability (Selinexor; 0.04 µM): 0.341
- viability (Selinexor; 0.2 µM): 0.366
- viability (Selinexor; 1 µM): 0.378
- viability (Selinexor; 5 µM): 0.285
- viability ([3]; 0.008 µM): 0.405
- viability ([3]; 0.04 µM): 0.334
- viability ([3]; 0.2 µM): 0.255
- viability ([3]; 1 µM): 0.191
- viability ([3]; 5 µM): 0.197
- viability (Venetoclax; 0.00064 µM): 0.803
- viability (Venetoclax; 0.0032 µM): 0.317
- viability (Venetoclax; 0.016 µM): 0.0881
- viability (Venetoclax; 0.08 µM): 0.0546
- viability (Venetoclax; 0.4 µM): 0.0458
- viability ([4]; 0.024 µM): 0.771
- viability ([4]; 0.12 µM): 0.831
- viability ([4]; 0.6 µM): 0.596
- viability ([4]; 3 µM): 0.641
- viability ([4]; 15 µM): 0.642
- viability (Bendamustine; 0.032 µM): 0.981
- viability (Bendamustine; 0.16 µM): 1.03
- viability (Bendamustine; 0.8 µM): 0.982
- viability (Bendamustine; 4 µM): 0.747
- viability (Bendamustine; 20 µM): 0.15

Test System: primary ALL patient cells (S088)
- viability ([1]; 0.016 µM): 1.08
- viability ([1]; 0.08 µM): 1.11
- viability ([1]; 0.4 µM): 1.08
- viability ([1]; 2 µM): 1.09
- viability ([1]; 10 µM): 1.05
- viability (Chlorambucil; 0.032 µM): 1.02
- viability (Chlorambucil; 0.16 µM): 1
- viability (Chlorambucil; 0.8 µM): 0.981
- viability (Chlorambucil; 4 µM): 0.71
- viability (Chlorambucil; 20 µM): 0.267
- viability (SGC 0946; 0.024 µM): 0.722
- viability (SGC 0946; 0.12 µM): 0.733
- viability (SGC 0946; 0.6 µM): 0.667
- viability (SGC 0946; 3 µM): 0.681
- viability (SGC 0946; 15 µM): 0.289
- viability ([2]; 0.024 µM): 0.838
- viability ([2]; 0.12 µM): 0.868
- viability ([2]; 0.6 µM): 0.907
- viability ([2]; 3 µM): 0.931
- viability ([2]; 15 µM): 0.733
- viability (Barasertib; 0.0008 µM): 0.716
- viability (Barasertib; 0.004 µM): 0.61
- viability (Barasertib; 0.02 µM): 0.415
- viability (Barasertib; 0.1 µM): 0.614
- viability (Barasertib; 0.5 µM): 0.588
- viability (EPZ-6438; 0.024 µM): 1.03
- viability (EPZ-6438; 0.12 µM): 1.03
- viability (EPZ-6438; 0.6 µM): 1.02
- viability (EPZ-6438; 3 µM): 0.928
- viability (EPZ-6438; 15 µM): 0.742
- viability (Midostaurin hydrate; 0.024 µM): 0.899
- viability (Midostaurin hydrate; 0.12 µM): 0.858
- viability (Midostaurin hydrate; 0.6 µM): 0.717
- viability (Midostaurin hydrate; 3 µM): 0.489
- viability (Midostaurin hydrate; 15 µM): 0.265
- viability (Entospletinib; 0.024 µM): 1.01
- viability (Entospletinib; 0.12 µM): 1.06
- viability (Entospletinib; 0.6 µM): 0.954
- viability (Entospletinib; 3 µM): 0.986
- viability (Entospletinib; 15 µM): 1.02
- viability (Vindesine; 0.016 µM): 0.633
- viability (Vindesine; 0.08 µM): 0.464
- viability (Vindesine; 0.4 µM): 0.37
- viability (Vindesine; 2 µM): 0.317
- viability (Vindesine; 10 µM): 0.255
- viability (Selinexor; 0.008 µM): 0.494
- viability (Selinexor; 0.04 µM): 0.339
- viability (Selinexor; 0.2 µM): 0.115
- viability (Selinexor; 1 µM): 0.0421
- viability (Selinexor; 5 µM): 0.0377
- viability ([3]; 0.008 µM): 0.545
- viability ([3]; 0.04 µM): 0.445
- viability ([3]; 0.2 µM): 0.393
- viability ([3]; 1 µM): 0.341
- viability ([3]; 5 µM): 0.297
- viability (Venetoclax; 0.00064 µM): 0.916
- viability (Venetoclax; 0.0032 µM): 0.657
- viability (Venetoclax; 0.016 µM): 0.437
- viability (Venetoclax; 0.08 µM): 0.259
- viability (Venetoclax; 0.4 µM): 0.181
- viability ([4]; 0.024 µM): 0.471
- viability ([4]; 0.12 µM): 0.597
- viability ([4]; 0.6 µM): 0.43
- viability ([4]; 3 µM): 0.548
- viability ([4]; 15 µM): 0.573
- viability (Bendamustine; 0.032 µM): 1
- viability (Bendamustine; 0.16 µM): 1.07
- viability (Bendamustine; 0.8 µM): 1
- viability (Bendamustine; 4 µM): 0.929
- viability (Bendamustine; 20 µM): 0.679

Test System: primary AML patient cells (S002)
- viability ([1]; 0.016 µM): 0.907
- viability ([1]; 0.08 µM): 0.892
- viability ([1]; 0.4 µM): 0.942
- viability ([1]; 2 µM): 0.934
- viability ([1]; 10 µM): 0.823
- viability (Chlorambucil; 0.032 µM): 0.972
- viability (Chlorambucil; 0.16 µM): 0.848
- viability (Chlorambucil; 0.8 µM): 0.945
- viability (Chlorambucil; 4 µM): 0.622
- viability (Chlorambucil; 20 µM): 0.299
- viability (SGC 0946; 0.024 µM): 1.1
- viability (SGC 0946; 0.12 µM): 1.16
- viability (SGC 0946; 0.6 µM): 0.833
- viability (SGC 0946; 3 µM): 1.16
- viability (SGC 0946; 15 µM): 0.9
- viability ([2]; 0.024 µM): 0.965
- viability ([2]; 0.12 µM): 1.46
- viability ([2]; 0.6 µM): 1.09
- viability ([2]; 3 µM): 1.04
- viability ([2]; 15 µM): 1.13
- viability (Barasertib; 0.0008 µM): 0.856
- viability (Barasertib; 0.004 µM): 0.855
- viability (Barasertib; 0.02 µM): 0.834
- viability (Barasertib; 0.1 µM): 0.904
- viability (Barasertib; 0.5 µM): 0.848
- viability (EPZ-6438; 0.024 µM): 1.18
- viability (EPZ-6438; 0.12 µM): 1.05
- viability (EPZ-6438; 0.6 µM): 0.999
- viability (EPZ-6438; 3 µM): 0.991
- viability (EPZ-6438; 15 µM): 0.884
- viability (Midostaurin hydrate; 0.024 µM): 1.04
- viability (Midostaurin hydrate; 0.12 µM): 0.936
- viability (Midostaurin hydrate; 0.6 µM): 1.07
- viability (Midostaurin hydrate; 3 µM): 1.25
- viability (Midostaurin hydrate; 15 µM): 1.14
- viability (Entospletinib; 0.024 µM): 1.03
- viability (Entospletinib; 0.12 µM): 1.03
- viability (Entospletinib; 0.6 µM): 0.895
- viability (Entospletinib; 3 µM): 1.08
- viability (Entospletinib; 15 µM): 1.07
- viability (Vindesine; 0.016 µM): 1.16
- viability (Vindesine; 0.08 µM): 1.12
- viability (Vindesine; 0.4 µM): 1.08
- viability (Vindesine; 2 µM): 0.965
- viability (Vindesine; 10 µM): 0.884
- viability (Selinexor; 0.008 µM): 0.831
- viability (Selinexor; 0.04 µM): 0.679
- viability (Selinexor; 0.2 µM): 0.584
- viability (Selinexor; 1 µM): 0.375
- viability (Selinexor; 5 µM): 0.332
- viability ([3]; 0.008 µM): 0.618
- viability ([3]; 0.04 µM): 0.484
- viability ([3]; 0.2 µM): 0.426
- viability ([3]; 1 µM): 0.394
- viability ([3]; 5 µM): 0.39
- viability (Venetoclax; 0.00064 µM): 0.979
- viability (Venetoclax; 0.0032 µM): 0.955
- viability (Venetoclax; 0.016 µM): 0.678
- viability (Venetoclax; 0.08 µM): 0.667
- viability (Venetoclax; 0.4 µM): 0.537
- viability ([4]; 0.024 µM): 0.913
- viability ([4]; 0.12 µM): 0.893
- viability ([4]; 0.6 µM): 0.859
- viability ([4]; 3 µM): 0.876
- viability ([4]; 15 µM): 0.832
- viability (Bendamustine; 0.032 µM): 1.11
- viability (Bendamustine; 0.16 µM): 1.2
- viability (Bendamustine; 0.8 µM): 1.14
- viability (Bendamustine; 4 µM): 1.09
- viability (Bendamustine; 20 µM): 0.724
